Results: ChEMBL document CHEMBL1126299, “Synthesis and structure-activity relationships of cephalosporins with C-3' catechol-containing residues” (J Med Chem, 1992)
Values after ≈ are worked out from the molar mass of the structure shown.

Assays:
[1] = test system: Enterobacter cloacae; test: microbe, parasite or virus in culture
Description: Minimum inhibitory concentration in Enterobacter cloacae, P99- inducible type 1 lactamase producer

[2] = test system: Staphylococcus aureus; test: microbe, parasite or virus in culture
Description: The compound was tested for minimum inhibitory concentration in Staphylococcus aureus,147N penicillin sensitive Staphylococcus aureus

[3] = test system: Providencia stuartii; test: microbe, parasite or virus in culture
Description: Minimum inhibitory concentration in Pseudomonas stuartii, I+442019 inducible type 1 lactamase producer

[4] = test system: Escherichia coli; test: microbe, parasite or virus in culture
Description: In vitro minimum inhibitory concentration against Escherichia coli (DC2 permeability mutant).

[5] = test system: Pseudomonas aeruginosa; test: microbe, parasite or virus in culture
Description: Minimum inhibitory concentration in Pseudomonas aeruginosa,799WT parent organism

[6] = test system: Pseudomonas aeruginosa; test: microbe, parasite or virus in culture; remark: listed apart in the source
Description: In vitro minimum inhibitory concentration against Pseudomonas aeruginosa (PU21).

[7] = test system: Pseudomonas aeruginosa; test: microbe, parasite or virus in culture; remark: listed apart in the source
Description: Minimum inhibitory concentration in Pseudomonas aeruginosa,799/61 permeability mutant

[8] = test system: Citrobacter freundii; test: microbe, parasite or virus in culture
Description: Minimum inhibitory concentration in Citrobacter freundii, I+382010 inducible type 1 lactamase producer

[9] = test system: Enterobacter cloacae; test: microbe, parasite or virus in culture; remark: listed apart in the source
Description: Minimum inhibitory concentration in Enterobacter cloacae, DR 401108 constitutive depressed type 1 lactamase producer

[10] = test system: Enterobacter cloacae; test: microbe, parasite or virus in culture; remark: listed apart in the source
Description: Minimum inhibitory concentration in Enterobacter cloacae, P99+ constitutive depressed type 1 lactamase producer

[11] = test system: Staphylococcus aureus; test: microbe, parasite or virus in culture; remark: listed apart in the source
Description: The compound was tested for minimum inhibitory concentration in Staphylococcus aureus Oxford penicillin sensitive Staphylococcus aureus

[12] = test system: Pseudomonas aeruginosa; test: microbe, parasite or virus in culture; remark: listed apart in the source
Description: Minimum inhibitory concentration in Pseudomonas aeruginosa, 18S inducible type 1 lactamase producer

[13] = test system: Providencia stuartii; test: microbe, parasite or virus in culture; remark: listed apart in the source
Description: Minimum inhibitory concentration in Pseudomonas stuartii, DR 442049 constitutive depressed type 1 lactamase producer

[14] = test system: Enterobacter cloacae; test: microbe, parasite or virus in culture; remark: listed apart in the source
Description: Minimum inhibitory concentration in Enterobacter cloacae, I+401029 inducible type 1 lactamase producer

[15] = test system: Escherichia coli; test: microbe, parasite or virus in culture; remark: listed apart in the source
Description: In vitro minimum inhibitory concentration against Escherichia coli (DC0 parent organism).

[16] = test system: Pseudomonas aeruginosa; test: microbe, parasite or virus in culture; remark: listed apart in the source
Description: Minimum inhibitory concentration in Pseudomonas aeruginosa, 18SH constitutive depressed type 1 lactamase producer

[17] = test system: Citrobacter freundii; test: microbe, parasite or virus in culture; remark: listed apart in the source
Description: Minimum inhibitory concentration in Citrobacter freundii, DR 382031 constitutive depressed type 1

[18] = The half life period in marmosets; type: ADME; conditions: callithrix, in vivo
[19] = physchem
Description: The dissociation constant of compound was tested for beta-Lactamase stability

[20] = The compound was evaluated for area under the curve in marmosets; type: ADME; conditions: callithrix, in vivo

CC(C)(O/N=C(/C(=O)N[C@@H]1C(=O)N2C(C(=O)O)=C(COC(=O)c3ccc(O)c(O)c3)CSC12)c1csc(N)n1)C(=O)O (some centres undefined)
MIC [1]: 0.5 µg/mL (≈ 0.804 µM) | MIC [2]: 8 µg/mL (≈ 12.9 µM) | MIC [3]: 0.125 µg/mL (≈ 0.201 µM) | MIC [4]: 0.008 µg/mL (≈ 0.0129 µM) | MIC [5]: 0.008 µg/mL (≈ 0.0129 µM) | MIC [6]: 0.3 µg/mL (≈ 0.483 µM) | MIC [7]: 0.008 µg/mL (≈ 0.0129 µM) | MIC [8]: 0.03 µg/mL (≈ 0.0483 µM) | MIC [9]: > 128 µg/mL | MIC [10]: 4 µg/mL (≈ 6.43 µM) | MIC [11]: 4 µg/mL (≈ 6.43 µM) | MIC [12]: 0.008 µg/mL (≈ 0.0129 µM) | MIC [13]: 4 µg/mL (≈ 6.43 µM) | MIC [14]: 0.06 µg/mL (≈ 0.0965 µM) | MIC [15]: 0.008 µg/mL (≈ 0.0129 µM) | MIC [16]: 0.125 µg/mL (≈ 0.201 µM) | MIC [17]: 8 µg/mL (≈ 12.9 µM)

CCO/N=C(\C(=O)N[C@@H]1C(=O)N2C(C(=O)O)=C(CNC(=O)c3cn(CC)c4cc(O)c(O)cc4c3=O)CSC12)c1csc(N)n1 (some centres undefined)
MIC [1]: 0.03 µg/mL (≈ 0.0456 µM) | MIC [2]: 1 µg/mL (≈ 1.52 µM) | MIC [3]: 0.06 µg/mL (≈ 0.0912 µM) | MIC [4]: 0.008 µg/mL (≈ 0.0122 µM) | MIC [5]: 0.015 µg/mL (≈ 0.0228 µM) | MIC [6]: 0.06 µg/mL (≈ 0.0912 µM) | MIC [7]: 0.008 µg/mL (≈ 0.0122 µM) | MIC [8]: 0.008 µg/mL (≈ 0.0122 µM) | MIC [9]: 32 µg/mL (≈ 48.7 µM) | MIC [10]: 1 µg/mL (≈ 1.52 µM) | MIC [11]: 2 µg/mL (≈ 3.04 µM) | MIC [12]: 0.008 µg/mL (≈ 0.0122 µM) | MIC [13]: 2 µg/mL (≈ 3.04 µM) | MIC [14]: 0.015 µg/mL (≈ 0.0228 µM) | MIC [15]: 0.008 µg/mL (≈ 0.0122 µM) | MIC [16]: 0.25 µg/mL (≈ 0.38 µM) | MIC [17]: 0.5 µg/mL (≈ 0.76 µM)

CCN(CC1=C(C(=O)O)N2C(=O)[C@@H](NC(=O)/C(=N\OC(C)(C)C(=O)O)c3csc(N)n3)C2SC1)C(=O)c1cc(O)c(O)c(Cl)c1 (some centres undefined)
MIC [1]: 0.125 µg/mL (≈ 0.183 µM) | MIC [3]: 0.25 µg/mL (≈ 0.366 µM) | MIC [5]: 0.008 µg/mL (≈ 0.0117 µM) | MIC [7]: 0.008 µg/mL (≈ 0.0117 µM) | MIC [8]: 0.008 µg/mL (≈ 0.0117 µM) | half-life [18]: 0.87 h | MIC [9]: 1 µg/mL (≈ 1.46 µM) | MIC [10]: 1 µg/mL (≈ 1.46 µM) | pKa [19]: 7.4 | MIC [12]: 0.008 µg/mL (≈ 0.0117 µM) | MIC [13]: 8 µg/mL (≈ 11.7 µM) | MIC [14]: 0.015 µg/mL (≈ 0.022 µM) | AUC [20]: 16.4 mg/h/L | MIC [16]: 0.06 µg/mL (≈ 0.0878 µM) | MIC [17]: 1 µg/mL (≈ 1.46 µM)

CC(C)(O/N=C(\C(=O)N[C@@H]1C(=O)N2C(C(=O)O)=C(CNC(=O)c3cc(O)c(O)c(Cl)c3)CSC12)c1csc(N)n1)C(=O)O (some centres undefined)
MIC [1]: 0.06 µg/mL (≈ 0.0916 µM) | MIC [2]: 16 µg/mL (≈ 24.4 µM) | MIC [3]: 0.03 µg/mL (≈ 0.0458 µM) | MIC [4]: 0.008 µg/mL (≈ 0.0122 µM) | MIC [5]: 0.008 µg/mL (≈ 0.0122 µM) | MIC [6]: 0.008 µg/mL (≈ 0.0122 µM) | MIC [7]: 0.008 µg/mL (≈ 0.0122 µM) | MIC [8]: 0.008 µg/mL (≈ 0.0122 µM) | half-life [18]: 4.57 h | MIC [9]: 16 µg/mL (≈ 24.4 µM) | MIC [10]: 4 µg/mL (≈ 6.11 µM) | pKa [19]: 7 | MIC [11]: 16 µg/mL (≈ 24.4 µM) | MIC [12]: 0.008 µg/mL (≈ 0.0122 µM) | MIC [13]: 2 µg/mL (≈ 3.05 µM) | MIC [14]: 0.06 µg/mL (≈ 0.0916 µM) | MIC [15]: 0.008 µg/mL (≈ 0.0122 µM) | AUC [20]: 638.3 mg/h/L | MIC [16]: 0.003 µg/mL (≈ 0.00458 µM) | MIC [17]: 4 µg/mL (≈ 6.11 µM)

Nc1nc(/C(=N/OC2(C(=O)O)CCCC2)C(=O)N[C@@H]2C(=O)N3C(C(=O)O)=C(CNC(=O)c4cc(O)c(O)c(Br)c4)CSC23)cs1 (some centres undefined)
MIC [1]: 0.03 µg/mL (≈ 0.0413 µM) | MIC [2]: 32 µg/mL (≈ 44.1 µM) | MIC [3]: 0.03 µg/mL (≈ 0.0413 µM) | MIC [4]: 0.008 µg/mL (≈ 0.011 µM) | MIC [5]: 0.008 µg/mL (≈ 0.011 µM) | MIC [6]: 0.015 µg/mL (≈ 0.0207 µM) | MIC [7]: 0.008 µg/mL (≈ 0.011 µM) | MIC [8]: 0.008 µg/mL (≈ 0.011 µM) | MIC [9]: 16 µg/mL (≈ 22.1 µM) | MIC [10]: 2 µg/mL (≈ 2.76 µM) | MIC [11]: 16 µg/mL (≈ 22.1 µM) | MIC [12]: 0.015 µg/mL (≈ 0.0207 µM) | MIC [13]: 2 µg/mL (≈ 2.76 µM) | MIC [14]: 0.03 µg/mL (≈ 0.0413 µM) | MIC [15]: 0.008 µg/mL (≈ 0.011 µM) | MIC [16]: 0.008 µg/mL (≈ 0.011 µM) | MIC [17]: 4 µg/mL (≈ 5.51 µM)

CCOC(=O)c1nc2cc(O)c(O)cc2nc1C(=O)NCC1=C(C(=O)O)N2C(=O)[C@@H](NC(=O)/C(=N\OC(C)(C)C(=O)O)c3csc(N)n3)C2SC1 (some centres undefined)
MIC [1]: 0.03 µg/mL (≈ 0.0403 µM) | MIC [3]: 0.06 µg/mL (≈ 0.0806 µM) | MIC [5]: 0.008 µg/mL (≈ 0.0107 µM) | MIC [7]: 0.008 µg/mL (≈ 0.0107 µM) | MIC [8]: 0.008 µg/mL (≈ 0.0107 µM) | MIC [9]: 0.5 µg/mL (≈ 0.671 µM) | MIC [10]: 0.06 µg/mL (≈ 0.0806 µM) | MIC [12]: 0.008 µg/mL (≈ 0.0107 µM) | MIC [13]: 2 µg/mL (≈ 2.69 µM) | MIC [14]: 0.03 µg/mL (≈ 0.0403 µM) | MIC [16]: 0.015 µg/mL (≈ 0.0201 µM) | MIC [17]: 0.06 µg/mL (≈ 0.0806 µM)

CC(=O)Oc1ccc(C(=O)OCC2=C(C(=O)O)N3C(=O)[C@@H](NC(=O)Cc4cccs4)C3SC2)cc1OC(C)=O (some centres undefined)
MIC [1]: 16 µg/mL (≈ 27.8 µM) | MIC [2]: 0.06 µg/mL (≈ 0.104 µM) | MIC [3]: 64 µg/mL (≈ 111 µM) | MIC [4]: 0.03 µg/mL (≈ 0.0522 µM) | MIC [5]: > 128 µg/mL | MIC [6]: > 128 µg/mL | MIC [7]: 0.125 µg/mL (≈ 0.218 µM) | MIC [8]: 16 µg/mL (≈ 27.8 µM) | MIC [10]: > 128 µg/mL | MIC [11]: 0.03 µg/mL (≈ 0.0522 µM) | MIC [12]: > 128 µg/mL | MIC [13]: > 128 µg/mL | MIC [14]: 128 µg/mL (≈ 223 µM) | MIC [15]: 0.5 µg/mL (≈ 0.87 µM) | MIC [16]: > 128 µg/mL | MIC [17]: > 128 µg/mL
